Results as given in US8859541B2, “6-alkynylpyridines” (Boehringer Ingelheim International GmbH, priority 2012, dated 2014).

Target: T1, XIAP BIR3 (Homo sapiens, UniProt P98170)
T1 construct: covering amino acids 241 to 356; XIAP BIR3; made in house; host or cells: E. coli
Assay: XIAP BIR3 binding assay (DELFIA), displacement of SMAC peptide
Conditions: GST-fusion BIR3 domain (aa 241 to 356) 10 nM, SMAC peptide 10 nM; activity of the (S)-isomers
Description: Biological Methods XIAP BIR3 and cIAP1 BIR3 Binding Assays (DELFIA)
Peptide […]-Lys(Biotin), representing the N-terminus of mature human SMAC (SMAC peptide), was used as interaction partner in the protein-peptide interaction assay.
BIR3 domains (10 nM) were incubated with SMAC peptide (10 nM) in Assay Buffer (50 mM Tris, 120 mM NaCl, 0.1% BSA, 1 mM DTT, 0.05% TritonX100) for one hour at room temperature in the presence of inhibitiory compounds. The assay mixture was transferred to a strepatvidin coated plate and incubated for one hour at room temperature to allow binding of the biotinylated peptide and associated BIR3 domains to the plate. After several washing steps Eu labeled anti-GST antibody (e.g. Perkin Elmer DELFIA Eu-N1-antiGST AD0250) was added to detect BIR3 domain-SMAC peptide interactions according to Perkin Elmer's instructions. […] Time resolved Europium fluoresecence was measured in a Wallac Victor using Standard assay settings.
DELFIA assay results were plotted against compound concentrations and Software GraphPad Prizm was used to calculate half maximal inhibitory concentrations (IC50 values).

T1 sequence (P98170 241-356): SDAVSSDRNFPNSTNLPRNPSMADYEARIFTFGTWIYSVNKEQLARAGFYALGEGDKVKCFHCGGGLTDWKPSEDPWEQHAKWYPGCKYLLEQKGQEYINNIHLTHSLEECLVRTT

Row | SMILES | IC50 [µM]
1 | CNC(C)C(=O)Nc1ccc(-c2c(C)cncc2C)c(C#Cc2ccc3ncccc3c2)n1 (centres unmarked) [Example 1, N-[5-(3,5-dimethylpyridin-4-yl)-6-(2-quinolin-6-ylethynyl)pyridin-2-yl]-2-(methylamino)propanamide] | 0.287
2 | CNC(C)C(=O)Nc1ccc(-c2cncnc2)c(C#Cc2ccc3c(c2)OCCCO3)n1 (centres unmarked) [Example 2, N-(6-[2-(3,4-dihydro-2H-1,5-benzodioxepin-7-yl)ethynyl]-5-pyrimidin-5-ylpyridin-2-yl]-2-(methylamino)propanamide] | 0.259
3 | CNC(C)C(=O)Nc1ccc(-c2cncc3ccccc23)c(C#Cc2ccc(OC)cc2)n1 (centres unmarked) [Example 3, N-[5-isoquinolin-4-yl-6-[2-(4-methoxyphenyl)ethynyl]-pyridin-2-yl]-2-(methyl-amino)propanamide] | 1.15
4 | CNC(C)C(=O)Nc1ccc(-c2cncc3ccccc23)c(C#Cc2ccc(F)cc2)n1 (centres unmarked) [Example 4, N-[6-[2-(4-fluorophenyl)-ethynyl]-5-isoquinolin-4-ylpyridin-2-yl]-2-(methyl-amino)propanamide] | 0.643
5 | CNC(C)C(=O)Nc1ccc(-c2cncc3ccccc23)c(C#Cc2ccc3c(c2)OCC(=O)N3)n1 (centres unmarked) [Example 5, N-[5-isoquinolin-4-yl-6-[2-(3-oxo-4H-1,4-benzoxazin-7-yl)-ethynyl]pyridin-2-yl]-2-(methylamino)propanamide] | 0.509
6 | CNC(C)C(=O)Nc1ccc(-c2cncnc2C)c(C#Cc2ccc(C)c(C)c2)n1 (centres unmarked) [Example 6, N-[6-[2-(3,4-dimethylphenyl)-ethynyl]-5-(4-methylpyrimidin-5-yl)pyridin-2-yl]-2-(methylamino)propan-amide] | 0.214
7 | CNC(C)C(=O)Nc1ccc(-c2cncnc2)c(C#Cc2ccc3[nH]c(C)nc3c2)n1 (centres unmarked) [Example 7, 2-(methylamino)-N-[6-[2-(2-methyl-1H-benzimidazol-5-yl)ethynyl]-5-pyrimidin-5-ylpyridin-2-yl]propanamide] | 0.46
8 | CNC(C)C(=O)Nc1ccc(-c2cncnc2)c(C#Cc2ccc(-c3ccccn3)s2)n1 (centres unmarked) [Example 8, 2-(methylamino)-N-[6-[2-(5-pyridin-2-ylthiophen-2-yl)-ethynyl]-5-pyrimidin-5-ylpyridin-2-yl]propanamide] | 0.351
9 | CNC(C)C(=O)Nc1ccc(-c2cncnc2)c(C#Cc2ccc3ccccc3n2)n1 (centres unmarked) [Example 9, 2-(methylamino)-N-[5-pyrimidin-5-yl-6-(2-quinolin-2-ylethynyl)pyridin-2-yl]-propanamide] | 1.01
10 | CNC(C)C(=O)Nc1ccc(-c2cncnc2)c(C#Cc2ccc3[nH]cnc3c2)n1 (centres unmarked) [Example 10, N-[6-[2-(1H-benzimidazol-5-yl)ethynyl]-5-pyrimidin-5-ylpyridin-2-yl]-2-(methyl-amino)propanamide] | 0.787
11 | CNC(C)C(=O)Nc1ccc(-c2cncnc2)c(C#Cc2ccc3c(c2)C(=O)CCO3)n1 (centres unmarked) [Example 11, 2-(methylamino)-N-[6-[2-(4-oxo-2,3-dihydrochromen-6-yl)ethynyl]-5-pyrimidin-5-ylpyridin-2-yl]propanamide] | 1.21
12 | CNC(C)C(=O)Nc1ccc(-c2cncnc2)c(C#Cc2ccc(OC)c(C#N)c2)n1 (centres unmarked) [Example 12, N-[6-[2-(3-cyano-4-methoxyphenyl)ethynyl]-5-pyrimidin-5-ylpyridin-2-yl]-2-(methylamino)propanamide] | 1.43
13 | CNC(C)C(=O)Nc1ccc(-c2cncnc2)c(C#Cc2ccc3c(c2)OCCO3)n1 (centres unmarked) [Example 14, N-[6-[2-(2,3-dihydro-1,4-benzodioxin-6-yl)ethynyl]-5-pyrimidin-5-ylpyridin-2-yl]-2-(methylamino)propanamide] | 0.417
14 | CNC(C)C(=O)Nc1ccc(-c2cncnc2)c(C#Cc2ccc3scnc3c2)n1 (centres unmarked) [Example 15, N-[6-[2-(1,3-benzothiazol-5-yl)ethynyl]-5-pyrimidin-5-ylpyridin-2-yl]-2-(methyl-amino)propanamide] | 0.711
15 | CNC(C)C(=O)Nc1ccc(-c2cncc3ccccc23)c(C#Cc2ccc3occc3c2)n1 (centres unmarked) [Example 16, N-[6-[2-(1-benzofuran-5-yl)-ethynyl]-5-isoquinolin-4-ylpyridin-2-yl]-2-(methyl-amino)propanamide] | 0.554
16 | CNC(C)C(=O)Nc1ccc(-c2cncnc2)c(C#Cc2cc(F)cc(Cl)c2)n1 (centres unmarked) [Example 17, N-[6-[2-(3-chloro-5-fluorophenyl)ethynyl]-5-pyrimidin-5-ylpyridin-2-yl]-2-(methylamino)propanamide] | 0.122

Row | SMILES | IC50 [µM]
17 | CNC(C)C(=O)Nc1ccc(-c2cncnc2)c(C#Cc2ccc3ccncc3c2)n1 (centres unmarked) [Example 18, N-[6-(2-isoquinolin-7-yl-ethynyl)-5-pyrimidin-5-ylpyridin-2-yl]-2-(methyl-amino)propanamide] | 0.745
18 | CNC(C)C(=O)Nc1ccc(-c2cncnc2)c(C#Cc2ccc3ncccc3c2)n1 (centres unmarked) [Example 19, 2-(methylamino)-N-[5-pyrimidin-5-yl-6-(2-quinolin-6-ylethynyl)pyridin-2-yl]-propanamide] | 0.867
19 | CNC(C)C(=O)Nc1ccc(-c2cncnc2)c(C#Cc2ccc3oc4ccccc4c3c2)n1 (centres unmarked) [Example 20, N-[6-(2-dibenzofuran-2-yl-ethynyl)-5-pyrimidin-5-ylpyridin-2-yl]-2-(methyl-amino)propanamide] | 4.28
20 | CNC(C)C(=O)Nc1ccc(-c2c(C)ccc3c2cnn3C)c(C#Cc2ccc3ncccc3c2)n1 (centres unmarked) [Example 21, N-[5-(1,5-dimethylindazol-4-yl)-6-(2-quinolin-6-ylethynyl)-pyridin-2-yl]-2-(methyl-amino)propanamide] | 0.54
21 | CNC(C)C(=O)Nc1ccc(-c2cccc3ccncc23)c(C#Cc2ccc3ncccc3c2)n1 (centres unmarked) [Example 22, N-[5-isoquinolin-8-yl-6-(2-quinolin-6-ylethynyl)pyridin-2-yl]-2-(methylamino)propan-amide] | 1.3
22 | CNC(C)C(=O)Nc1ccc(-c2cncnc2)c(C#Cc2ccc3ccccc3c2)n1 (centres unmarked) [Example 23, 2-(methylamino)-N-[6-(2-naphthalen-2-ylethynyl)-5-pyrimidin-5-ylpyridin-2-yl]-propanamide] | 0.265
23 | CNC(C)C(=O)Nc1ccc(-c2c(C)ccc3ncccc23)c(C#Cc2ccc3ncccc3c2)n1 (centres unmarked) [Example 24, 2-(methylamino)-N-[5-(6-methylquinolin-5-yl)-6-(2-quinolin-6-ylethynyl)pyridin-2-yl]propanamide] | 0.698
24 | CNC(C)C(=O)Nc1ccc(-c2cncnc2C)c(C#Cc2ccc3cncnc3c2)n1 (centres unmarked) [Example 25, 2-(methylamino)-N-[5-(4-methylpyrimidin-5-yl)-6-(2-quinazolin-7-ylethynyl)-pyridin-2-yl]propanamide] | 0.653
25 | CNC(C)C(=O)Nc1ccc(-c2c(C)nc3ccccn23)c(C#Cc2ccc3c(=O)n(C)ccc3c2)n1 (centres unmarked) [Example 32, 2-(methylamino)-N-[5-(2-methylimidazo[1,2-a]pyridin-3-yl)-6-[2-(2-methyl-1-oxoisoquinolin-6-yl)ethynyl]-pyridin-2-yl]propanamide] | 0.228
26 | CNC(C)C(=O)Nc1ccc(-c2c(C)nc3ccccn23)c(C#Cc2ccc(C#N)c(C)c2)n1 (centres unmarked) [Example 38, N-[6-[2-(4-cyano-3-methyl-phenyl)ethynyl]-5-(2-methyl-imidazo[1,2-a]pyridin-3-yl)-pyridin-2-yl]-2-(methylamino)-propanamide] | 0.142
27 | CNC(C)C(=O)Nc1ccc(-c2cnc3ccc(C#N)cn23)c(C#Cc2ccc3cnccc3c2)n1 (centres unmarked) [Example 40, N-[5-(6-cyanoimidazo[1,2-a]-pyridin-3-yl)-6-(2-isoquinolin-6-ylethynyl)pyridin-2-yl]-2-(methylamino)propanamide] | 0.445
28 | CNC(C)C(=O)Nc1ccc(-c2c(C)nc3ccccn23)c(C#Cc2ccc3c(Cl)nccc3c2)n1 (centres unmarked) [Example 43, N-[6-[2-(1-chloroisoquinolin-6-yl)ethynyl]-5-(2-methyl-imidazo[1,2-a]pyridin-3-yl)-pyridin-2-yl]-2-(methylamino)-propanamide] | 0.31
29 | CNC(C)C(=O)Nc1ccc(-c2c(C)nc3ccccn23)c(C#Cc2ccc3cc(F)ccc3c2)n1 (centres unmarked) [Example 51, N-[6-[2-(6-fluoronaphthalen-2-yl)ethynyl]-5-(2-methyl-imidazo[1,2-a]pyridin-3-yl)-pyridin-2-yl]-2-(methylamino)-propanamide] | 0.453
30 | CNC(C)C(=O)Nc1ccc(-c2c(C)nc3ccccn23)c(C#Cc2ccc(-c3ccncn3)cc2)n1 (centres unmarked) [Example 55, 2-(methylamino)-N-[5-(2-methylimidazo[1,2-a]pyridin-3-yl)-6-[2-(4-pyrimidin-4-ylphenyl)ethynyl]pyridin-2-yl]-propanamide] | 0.31
31 | CNC(C)C(=O)Nc1ccc(-c2c(Cl)cncc2Cl)c(C#Cc2ccc3ncccc3c2)n1 (centres unmarked) [Example 56, N-[5-(3,5-dichloropyridin-4-yl)-6-(2-quinolin-6-ylethynyl)-pyridin-2-yl]-2-(methylamino)-propanamide] | 2.88
32 | CNC(C)C(=O)Nc1ccc(-c2cnc(SC)nc2C#N)c(C#Cc2ccc3cnccc3c2)n1 (centres unmarked) [Example 59, N-[5-(4-cyano-2-methylsulfanylpyrimidin-5-yl)-6-(2-isoquinolin-6-ylethynyl)-pyridin-2-yl]-2-(methylamino)-propanamide] | 0.918
